Reference: publication PMC5681660, “Reduced hepatitis B and D viral entry using clinically applied drugs as novel inhibitors of the bile acid transporter NTCP” (Scientific Reports, 2017)
Counter-ions that a name gives are not always drawn. Like-named read-outs stand apart in the source and are kept apart here.

How the values were obtained:
[1] = molecular target: T1, human NTCP (Homo sapiens, UniProt Q14973); assay: Screening taurocholate uptake assay (96-well, [14C]taurocholate, 10 µM drug)
T1 sequence (Q14973 1-349): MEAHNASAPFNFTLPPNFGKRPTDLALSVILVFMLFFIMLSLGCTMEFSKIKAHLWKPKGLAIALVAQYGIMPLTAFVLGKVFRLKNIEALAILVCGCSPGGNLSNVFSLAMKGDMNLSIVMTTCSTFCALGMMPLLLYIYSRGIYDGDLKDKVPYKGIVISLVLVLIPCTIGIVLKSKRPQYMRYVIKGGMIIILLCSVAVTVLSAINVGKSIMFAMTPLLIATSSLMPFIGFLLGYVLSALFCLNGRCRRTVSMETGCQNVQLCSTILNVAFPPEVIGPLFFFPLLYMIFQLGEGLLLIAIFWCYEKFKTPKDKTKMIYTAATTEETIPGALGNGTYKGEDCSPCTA

[2] = molecular target: T1, human NTCP; assay: Screening fluorescent competitive Myrcludex B-FITC binding assay (96-well, 10 µM drug)
[3] = Prestwick library screen, 10 µM drug, B-score of taurocholate uptake
[4] = combined ranking from functional and binding assay B-scores
[5] = Prestwick library screen, 10 µM drug, B-score of Myrcludex B-FITC binding
[6] = combined ranking from functional and binding screening assays
[7] = screen, 10 µM drug, taurocholate uptake
[8] = screen, 10 µM drug, Myrcludex B-FITC binding
[9] = Prestwick library screen, taurocholate uptake, 10 µM drug
[10] = ranking score beside the functional and binding assay B-scores of the screen
[11] = Prestwick library screen, Myrcludex B-FITC binding, 10 µM drug

## Nc1ccc(S(=O)(=O)Nc2ccnn2-c2ccccc2)cc1 [Sulfaphenazole]
[1]; [3]
  B-score functional assay: 0.483
[1]; [4]
  Ranking score: 867.854
[2]; [5]
  B-score binding assay: 0.287

## Nc1ccc(S(=O)(=O)Nc2ccccn2)cc1 [Sulfapyridine]
[1]; [6]
  Ranking score: 331.804
[1]; [7]
  B-score functional assay: 0.557
[2]; [8]
  B-score binding assay: -1.889

## Nc1ccc(S(=O)(=O)[N-]c2cnc3ccccc3n2)cc1.[Na+] [Sulfaquinoxaline sodium salt]
[1]; [3]
  B-score functional assay: 0.659
[1]; [4]
  Ranking score: 893.639
[2]; [5]
  B-score binding assay: 0.273

## Nc1ccc(S(=O)(=O)Nc2nccs2)cc1 [Sulfathiazole]
[1]; [6]
  Ranking score: 386.996
[1]; [7]
  B-score functional assay: -1.223
[2]; [8]
  B-score binding assay: 0.039

## Cc1noc(NS(=O)(=O)c2ccc(N)cc2)c1C [Sulfisoxazole]
[1]; [9]
  B-score functional assay: -0.089
[1]; [10]
  Ranking score: 663.513
[2]; [11]
  B-score binding assay: 0.207

## COc1cc([S+](C)[O-])ccc1-c1nc2ncccc2[nH]1 (stereo not drawn) [Sulmazole]
[1]; [6]
  Ranking score: 402.209
[1]; [7]
  B-score functional assay: 0.016
[2]; [8]
  B-score binding assay: -0.978

## CCCCCCCCNC(C)C(O)c1ccc(SC(C)C)cc1 (stereo not drawn) [Suloctidil]
[1]; [6]
  Ranking score: 345.514
[1]; [7]
  B-score functional assay: 4.189
[2]; [8]
  B-score binding assay: -2.148

## CCN1CCCC1CNC(=O)c1cc(S(N)(=O)=O)ccc1OC (stereo not drawn) [Sulpiride]
[1]; [9]
  B-score functional assay: 0.071
[1]; [10]
  Ranking score: 822.943
[2]; [11]
  B-score binding assay: 0.598

## CNS(=O)(=O)Cc1ccc2[nH]cc(CCN(C)C)c2c1 [Sumatriptan succinate]
[1]
  B-score functional assay: 0.496
  Ranking score: 810.351
[2]
  B-score binding assay: 0.075

## Cl.O=c1[nH]oc2c1CCNC2 [THIP Hydrochloride]
[1]; [6]
  Ranking score: 426.394
[1]; [7]
  B-score functional assay: 0.28
[2]; [8]
  B-score binding assay: -1.136

## Nc1c2c(nc3ccccc13)CCCC2 [Tacrine hydrochloride]
[1]; [9]
  B-score functional assay: -0.044
[1]; [10]
  Ranking score: 757.813
[2]; [11]
  B-score binding assay: 0.755

## CC/C(=C(\c1ccccc1)c1ccc(OCCN(C)C)cc1)c1ccccc1 [Tamoxifen citrate]
[1]; [9]
  B-score functional assay: 0.142
[1]; [10]
  Ranking score: 732.268
[2]; [11]
  B-score binding assay: 0.04

## [H]/N=C(/NCCCCC)N/N=C/c1c[nH]c2ccc(OC)cc12 [Tegaserod maleate]
[1]; [3]
  B-score functional assay: 1.009
[1]; [4]
  Ranking score: 947.847
[2]; [5]
  B-score binding assay: 0.318

## Cc1scc2c1N(C(=O)CN1CCN(C)CC1)c1ccccc1NC2=O [Telenzepine dihydrochloride]
[1]; [3]
  B-score functional assay: 0.592
[1]; [4]
  Ranking score: 1037.8
[2]; [5]
  B-score binding assay: 1.535

## Cn1nnc2c(C(N)=O)ncn2c1=O [Temozolomide]
[1]; [3]
  B-score functional assay: 0.533
[1]; [4]
  Ranking score: 906.245
[2]; [5]
  B-score binding assay: 0.415

## COc1ccc2[nH]c([S+]([O-])Cc3ncc(C)c(OC)c3C)nc2n1 (stereo not drawn) [Tenatoprazole]
[1]
  B-score functional assay: -1.232
  Ranking score: 199.975
[2]
  B-score binding assay: -1.326

## CN(C/C=C/C#CC(C)(C)C)Cc1cccc2ccccc12 [Terbinafine]
[1]; [9]
  B-score functional assay: 3.878
[1]; [10]
  Ranking score: 842.5
[2]; [11]
  B-score binding assay: -0.07

## CC(C)(C)NCC(O)c1cc(O)cc(O)c1.CC(C)(C)NCC(O)c1cc(O)cc(O)c1.O=S(=O)(O)O (stereo not drawn) [Terbutaline hemisulfate]
[1]; [6]
  Ranking score: 291.443
[1]; [7]
  B-score functional assay: 2.669
[2]; [8]
  B-score binding assay: -2.462

## CCC(=O)O[C@H]1CC[C@H]2[C@@H]3CCC4=CC(=O)CC[C@]4(C)[C@H]3CC[C@]12C [Testosterone propionate]
[1]
  B-score functional assay: -0.451
  Ranking score: 567.732
[2]
  B-score binding assay: 0.252

## CCCCNc1ccc(C(=O)OCCN(C)C)cc1.Cl [Tetracaïne hydrochloride]
[1]; [3]
  B-score functional assay: 0.799
[1]; [4]
  Ranking score: 1118.05
[2]; [5]
  B-score binding assay: 2.591

## CN(C)[C@@H]1C(O)=C(C(N)=O)C(=O)[C@@]2(O)C(O)=C3C(=O)c4c(O)cccc4[C@@](C)(O)[C@H]3C[C@@H]12 [Tetracycline hydrochloride]
[1]; [9]
  B-score functional assay: 0.067
[1]; [10]
  Ranking score: 755.57
[2]; [11]
  B-score binding assay: 0.201

## c1ccc2c(c1)CCCC2C1=NCCN1 (stereo not drawn) [Tetrahydrozoline hydrochloride]
[1]; [3]
  B-score functional assay: 0.112
[1]; [4]
  Ranking score: 952.65
[2]; [5]
  B-score binding assay: 1.943

## O=C1CCC(N2C(=O)c3ccccc3C2=O)C(=O)N1 (stereo not drawn) [Thalidomide]
[1]; [3]
  B-score functional assay: 0.111
[1]; [4]
  Ranking score: 964.883
[2]; [5]
  B-score binding assay: 2.398

## Cn1c(=O)c2[nH]cnc2n(C)c1=O [Theophylline monohydrate]
[1]; [6]
  Ranking score: 321.683
[1]; [7]
  B-score functional assay: -1.998
[2]; [8]
  B-score binding assay: 0.205

## Cc1ncc(C[n+]2csc(CCO)c2C)c(N)n1 [Thiamine hydrochloride]
[1]; [9]
  B-score functional assay: 1.872
[1]; [10]
  Ranking score: 830.8
[2]; [11]
  B-score binding assay: -0.051

## CCSc1ccc2c(c1)N(CCCN1CCN(C)CC1)c1ccccc1S2.O=C(O)CC(O)C(=O)O.O=C(O)CC(O)C(=O)O [Thiethylperazine dimalate]
[1]; [3]
  B-score functional assay: 0.623
[1]; [4]
  Ranking score: 1093.79
[2]; [5]
  B-score binding assay: 3.252

## Nc1nc(=S)c2ncn([C@@H]3O[C@H](CO)[C@@H](O)[C@H]3O)c2[nH]1 [Thioguanosine]
[1]; [6]
  Ranking score: 366.332
[1]; [7]
  B-score functional assay: -0.426
[2]; [8]
  B-score binding assay: -0.655

## S=C(NC1CCCCC1)N1CCC(c2cnc[nH]2)CC1 [Thioperamide maleate]
[1]; [6]
  Ranking score: 451.504
[1]; [7]
  B-score functional assay: -0.893
[2]; [8]
  B-score binding assay: 0.108

## CN1CCN(CCCN2c3ccccc3Sc3ccc(S(=O)(=O)N(C)C)cc32)CC1.CS(=O)(=O)O.CS(=O)(=O)O [Thioproperazine dimesylate]
[1]; [3]
  B-score functional assay: 0.683
[1]; [4]
  Ranking score: 1068.06
[2]; [5]
  B-score binding assay: 1.771

## O=C(O)CNC(=O)C(CS)Cc1ccccc1 (stereo not drawn) [Thiorphan]
[1]; [3]
  B-score functional assay: 0.09
[1]; [4]
  Ranking score: 959.982
[2]; [5]
  B-score binding assay: 2.652

## N[C@@H](Cc1cc(I)c(Oc2cc(I)c(O)c(I)c2)c(I)c1)C(=O)O [Thyroxine (L)]
[1]; [6]
  Ranking score: 435.061
[1]; [7]
  B-score functional assay: 0.005
[2]; [8]
  B-score binding assay: -0.765

## c1ccc2[nH]c(-c3cscn3)nc2c1 [Tiabendazole]
[1]; [3]
  B-score functional assay: 0.849
[1]; [4]
  Ranking score: 925.084
[2]; [5]
  B-score binding assay: 0.306

## CCN(CC)CCNC(=O)c1cc(S(C)(=O)=O)ccc1OC [Tiapride hydrochloride]
[1]; [3]
  B-score functional assay: 1.625
[1]; [4]
  Ranking score: 1010.78
[2]; [5]
  B-score binding assay: 0.4

## CC(C(=O)O)c1ccc(C(=O)c2ccccc2)s1 (stereo not drawn) [Tiaprofenic acid]
[1]; [3]
  B-score functional assay: 0.836
[1]; [4]
  Ranking score: 1082.46
[2]; [5]
  B-score binding assay: 1.57

## C#C[C@]1(O)CC[C@H]2[C@@H]3[C@H](C)CC4=C(CCC(=O)C4)[C@H]3CC[C@@]21C [Tibolone]
[1]; [3]
  B-score functional assay: 0.613
[1]; [4]
  Ranking score: 930.923
[2]; [5]
  B-score binding assay: 0.535

## CC(C)(C)NC[C@H](O)COc1nsnc1N1CCOCC1.O=C(O)/C=C\C(=O)O [Timolol maleate salt]
[1]; [3]
  B-score functional assay: 1.166
[1]; [4]
  Ranking score: 1052.08
[2]; [5]
  B-score binding assay: 0.866

## Clc1ccc2nsnc2c1NC1=NCCN1 [Tizanidine HCl]
[1]; [6]
  Ranking score: 334.885
[1]; [7]
  B-score functional assay: -0.107
[2]; [8]
  B-score binding assay: -1.169

## Cc1cccc(C)c1NC(=O)C(C)N (stereo not drawn) [Tocainide hydrochloride]
[1]; [3]
  B-score functional assay: 1.054
[1]; [4]
  Ranking score: 1036.23
[2]; [5]
  B-score binding assay: 0.83

## c1ccc(CC2=NCCN2)cc1 [Tolazoline hydrochloride]
[1]; [3]
  B-score functional assay: 4.096
[1]; [4]
  Ranking score: 929.251
[2]; [5]
  B-score binding assay: 0.03

## CCCCNC(=O)NS(=O)(=O)c1ccc(C)cc1 [Tolbutamide]
[1]; [6]
  Ranking score: 448.765
[1]; [7]
  B-score functional assay: 0.082
[2]; [8]
  B-score binding assay: -0.855

## Cc1ccc(C(=O)c2cc(O)c(O)c([N+](=O)[O-])c2)cc1 [Tolcapone]
[1]; [6]
  Ranking score: 424.338
[1]; [7]
  B-score functional assay: -1.594
[2]; [8]
  B-score binding assay: 1.049

## Cc1ccc(C(=O)c2ccc(CC(=O)O)n2C)cc1 [Tolmetin sodium salt dihydrate]
[1]; [3]
  B-score functional assay: 0.203
[1]; [4]
  Ranking score: 996.915
[2]; [5]
  B-score binding assay: 2.458

## Cc1ccc(O)c([C@H](CCN(C(C)C)C(C)C)c2ccccc2)c1 [Tolterodine tartrate]
[1]; [9]
  B-score functional assay: 0.018
[1]; [10]
  Ranking score: 673.446
[2]; [11]
  B-score binding assay: 0.032

## CC1(C)O[C@@H]2[C@@H](CO[C@@]3(COS(N)(=O)=O)OC(C)(C)O[C@@H]23)O1 [Topiramate]
[1]; [9]
  B-score functional assay: 1.004
[1]; [10]
  Ranking score: 700.689
[2]; [11]
  B-score binding assay: -0.268

## CC[C@@]1(O)C(=O)OCc2c1cc1n(c2=O)Cc2cc3c(CN(C)C)c(O)ccc3nc2-1 [Topotecan]
[1]; [9]
  B-score functional assay: 0.858
[1]; [10]
  Ranking score: 819.148
[2]; [11]
  B-score binding assay: 0.007

## Cl.NC1CCN(c2nc3c(cc2F)c(=O)c(C(=O)O)cn3-c2ccc(F)cc2F)C1 (stereo not drawn) [Tosufloxacin hydrochloride]
[1]; [9]
  B-score functional assay: 0.009
[1]; [10]
  Ranking score: 746.768
[2]; [11]
  B-score binding assay: 0.338
